In US7659298B2, “Pyrazole derivatives and use thereof as orexin receptor antagonists” (sanofi-aventis, priority 2003, dated 2010):
Where no end group is shown, it is not given here.

How the values were obtained:
[1] = tested on: orexin-1 receptors; details: cited from earlier work
[2] = biological target: T1, human recombinant orexin-1 (hr-OX-1) receptor (Homo sapiens, UniProt O43613); test: hr-125I-orexin-A radioligand competition binding, orexin-1 receptor; details: read-out: Orex-1 IC50
T1 construct: expressed in transfected cells; host or cells: CHO cells (CHO-hr-OX-1), purified plasma membrane fraction
T1 sequence (O43613 1-425): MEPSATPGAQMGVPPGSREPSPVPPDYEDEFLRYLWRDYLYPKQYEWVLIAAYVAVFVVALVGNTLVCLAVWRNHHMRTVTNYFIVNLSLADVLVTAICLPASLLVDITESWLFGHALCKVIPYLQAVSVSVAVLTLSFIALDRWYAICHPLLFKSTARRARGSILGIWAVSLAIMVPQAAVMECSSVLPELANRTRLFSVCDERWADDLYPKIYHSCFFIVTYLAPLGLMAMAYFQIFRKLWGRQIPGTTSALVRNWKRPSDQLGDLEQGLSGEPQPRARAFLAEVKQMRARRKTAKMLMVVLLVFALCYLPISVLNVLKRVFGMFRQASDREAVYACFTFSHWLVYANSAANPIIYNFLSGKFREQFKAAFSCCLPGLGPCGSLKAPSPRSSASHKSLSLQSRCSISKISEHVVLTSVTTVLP
Experimental: (§1) In vitro radioligand binding assays were used for determination of the affinities of the compounds for both the orexin-1 and orexin-2 receptors.
(§2) In the frame of hr-^125I-orexin-A radioligand competition (displacement) experiments a fixed concentration of hr-^125I-orexin-A is incubated with increasing concentrations of unlabeled test compound in the presence of highly purified plasmamembranes bearing either the human recombinant orexin-1 (hr-OX-1) or the human recombinant orexin-2 (hr-OX-2) receptors. Specific binding of hr-^125I-orexin-A to plasmamembranes is measured at each concentrations of the unlabeled compound and thus a competition curve is generated. The concentration of unlabeled compound displacing 50% of specific binding (IC50) is calculated. In case of competitive interaction the binding affinity constant of the unlabeled compound (KI) is calculated according to the Cheng-Prusoff equation ([…]. Affinity of unlabeled compound for the receptor is equal to 1/KI.
(§3) Culturing the Chinese hamster ovarian cells expressing human recombinant orexin-1 or orexin-2 receptor proteins (CHO-hr-OX-1 or CHO-hr-OX-2 cells) was carried out in cell culture medium (MEM medium, supplemented with 40 mg/l prolin, 20 mg/l gentamycin, 300 mg/l geneticin, 10% dialysed fetal calf serum).
(§4) Adherent cells were plated into Greiner flasks (175 cm^2). 4-6 days later culture medium was removed and cells were scarped in calcium- and magnesium-free phosphate buffered saline (PBS, 20 ml/flask). The cell suspension was centrifuged at 1,000 g for 5 minutes (4° C.). The resulting pellet was resuspended and homogenized with a teflon pestle (4° C.), then layered onto a discontinous sucrose gradient and centrifuged at 105,000 g. […]
(§5) Serial dilution series were prepared from stock solutions (100% DMSO) with binding assay buffer in such a way that each samples contained a final concentration of 1% of DMSO in the receptor binding reaction mixture. […] The radioactivity remained on the filter was counted in a gamma counter (Wallac Automatic Gamma Counter 1470 Wizard).

[3] = biological target: T2, human recombinant orexin-2 (hr-OX-2) receptor (Homo sapiens, UniProt O43614); test: hr-125I-orexin-A radioligand competition binding, orexin-2 receptor; details: read-out: Orex-2 IC50
T2 construct: expressed in transfected cells; host or cells: CHO cells (CHO-hr-OX-2), purified plasma membrane fraction
T2 sequence (O43614 1-444): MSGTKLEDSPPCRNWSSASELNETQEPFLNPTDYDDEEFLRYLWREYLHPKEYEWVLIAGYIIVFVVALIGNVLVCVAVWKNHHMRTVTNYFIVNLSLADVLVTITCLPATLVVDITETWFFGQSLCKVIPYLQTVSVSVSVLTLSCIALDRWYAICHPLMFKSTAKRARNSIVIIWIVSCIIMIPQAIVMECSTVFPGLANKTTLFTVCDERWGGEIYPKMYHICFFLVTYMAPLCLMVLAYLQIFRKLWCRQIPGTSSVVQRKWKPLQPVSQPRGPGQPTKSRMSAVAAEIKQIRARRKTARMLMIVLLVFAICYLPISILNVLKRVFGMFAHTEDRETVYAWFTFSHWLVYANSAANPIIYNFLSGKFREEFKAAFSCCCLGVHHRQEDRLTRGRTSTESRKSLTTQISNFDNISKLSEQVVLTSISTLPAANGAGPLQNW
Experimental: as §1, §2, §3, §4, §5

| Compound | melting point [°C] | IC50 [2] [µM] | IC50 [3] [µM] | fold more effective on the orexin-1 receptors compared to orexin B [1] |
| --- | --- | --- | --- | --- |
| orexin A: "Orexin A consists of 33 aminoacid residues with two intramolecular disulphide bridges" (QPLPDCCRQKTCSCRLYELLHGAGNHAAGILTL; disulfide (positions not given here); ends not checked; UniProt O43612 34-66, looked up) |  |  |  | 10-50 fold |
| Cn1nc(-c2ccncc2)c(COc2ccccc2C(=O)Nc2cnc3ccccc3c2)c1Cl [2-(5-Chloro-1-methyl-3-pyridin-4-yl-1H-pyrazol-4-ylmethoxy)-N-quinolin-3-ylbenzamide] |  | 0.051 | 1.1 |  |

Further lines, with some results ahead:

| melting point [°C] | IC50 [2] [µM] | IC50 [3] [µM] | Compound | fold more effective on the orexin-1 receptors compared to orexin B [1] |
| --- | --- | --- | --- | --- |
| 170 |  |  | Cn1nc(-c2ccccc2)c(COc2ccccc2C(=O)Nc2cnc3ccccc3c2)c1Cl [Example 65, 2-(3-Phenyl-5-chloro-1-methyl-1H-pyrazol-4-ylmethoxy)-N-quinolin-3-ylbenzamide] |  |
|  | 0.033 | 0.156 | Cn1nc(-c2ccccc2)c(CSc2ccccc2C(=O)Nc2ccc3ccccc3c2)c1Cl |  |
|  | 0.057 | 0.68 | Cn1nc(-c2cccnc2)c(CCc2ccccc2C(=O)Nc2cnc3ccccc3c2)c1Cl [2-[2-(5-Chloro-1-methyl-3-pyridin-3-yl-1H-pyrazol-4-yl)ethyl]-N-quinolin-3-ylbenzamide] |  |
